# Laboratory results taken from patent US11634396B2 (priority 2021, dated 2023).
# Read-outs that look alike come from different tables or passages of the source.
# Key:
# human dOR = human dOR (Homo sapiens (Human), UniProt P41143); assay: cell-based; settings: dOR cAMP Agonist Assay EC50, CHO Tag-lite human dOR stable cell line; forskolin
# human mOR = human mOR (Homo sapiens (Human), UniProt P35372); assay: cell-based
# kOR (OPRK1) = kOR (OPRK1) (Homo sapiens (Human), UniProt P41145); assay: KOR β-Arrestin antagonist assay (Tango OPRK1-bla U2OS cells); assay type: cell-based
# Source text: KOR β-Arrestin Agonist and Antagonist assays were preformed using the Tango™ OPRK1-bla U2OS cells from Invitrogen and purchased from ThermoFisher, catalog number K1576.
# [1] = CHO Tag-lite human mOR stable cell line, forskolin 4 μM and DAMGO at EC90, read-out: mOR cAMP Antagonist Assay IC50
# human dOR, sequence (P41143 whole entry): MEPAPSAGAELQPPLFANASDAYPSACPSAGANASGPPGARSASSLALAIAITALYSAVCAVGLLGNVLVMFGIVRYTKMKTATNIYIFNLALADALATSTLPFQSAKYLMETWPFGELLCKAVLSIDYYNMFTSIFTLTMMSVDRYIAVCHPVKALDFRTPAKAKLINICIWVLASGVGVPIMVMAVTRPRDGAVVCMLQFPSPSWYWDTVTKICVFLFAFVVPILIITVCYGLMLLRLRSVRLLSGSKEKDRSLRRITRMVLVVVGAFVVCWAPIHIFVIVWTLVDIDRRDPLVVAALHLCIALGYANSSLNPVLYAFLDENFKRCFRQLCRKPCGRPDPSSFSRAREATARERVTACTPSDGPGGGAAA
# human mOR, sequence (P35372 whole entry): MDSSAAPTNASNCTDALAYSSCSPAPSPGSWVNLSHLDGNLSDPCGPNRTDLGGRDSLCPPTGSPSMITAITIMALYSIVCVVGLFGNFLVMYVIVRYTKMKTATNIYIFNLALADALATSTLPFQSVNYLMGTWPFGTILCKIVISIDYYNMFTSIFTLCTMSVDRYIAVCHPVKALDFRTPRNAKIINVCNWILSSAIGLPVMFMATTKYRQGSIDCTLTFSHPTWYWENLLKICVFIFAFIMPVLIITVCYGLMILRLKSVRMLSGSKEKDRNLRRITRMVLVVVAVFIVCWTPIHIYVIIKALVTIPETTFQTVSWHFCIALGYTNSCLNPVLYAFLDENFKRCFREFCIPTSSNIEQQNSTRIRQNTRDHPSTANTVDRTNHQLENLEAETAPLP
# kOR (OPRK1), sequence (P41145 whole entry): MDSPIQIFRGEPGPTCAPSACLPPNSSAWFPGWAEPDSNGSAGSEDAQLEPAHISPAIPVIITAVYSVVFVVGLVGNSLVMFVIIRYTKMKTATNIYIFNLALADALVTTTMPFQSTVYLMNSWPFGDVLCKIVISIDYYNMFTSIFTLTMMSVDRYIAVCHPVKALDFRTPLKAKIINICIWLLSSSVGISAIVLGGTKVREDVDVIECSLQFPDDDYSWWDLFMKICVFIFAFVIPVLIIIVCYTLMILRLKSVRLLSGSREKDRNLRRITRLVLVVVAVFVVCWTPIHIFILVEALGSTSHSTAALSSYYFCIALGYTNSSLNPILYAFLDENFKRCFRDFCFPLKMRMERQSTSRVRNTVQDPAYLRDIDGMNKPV
SMILES,EC50 (human dOR) [nM],IC50 (human mOR; [1]) [nM],IC50 (kOR (OPRK1)) [nM],IC50 (human mOR) [nM]
"CN(C)[C@H](CNC(=O)C[C@H](c1ccccc1)C1CC1)Cc1ccc2[nH]ncc2c1 [Compound 227, (3S)-3-cyclopropyl-N-[(2S)-2-(dimethylamino)-3-(1H-indazol-5-yl)propyl]-3-phenylpropanamide]",300 to 3000,< 300,300 to 3000,–
"Cc1cc(O)cc(C)c1C[C@@H](CNC(=O)C[C@H](c1ccccc1)C1CC1)N(C)C [Compound 251, (S)-3-cyclopropyl-N-((S)-2-(dimethylamino)-3-(4-hydroxy-2,6-dimethylphenyl)propyl)-3-phenylpropanamide]",> 3000,< 300,< 300,–
"CN(C)[C@H](CNC(=O)C[C@@H](c1ccccc1)C1CC1)Cc1ccc(O)cc1 [Compound 318, (R)-3-cyclopropyl-N-((S)-2-(dimethylamino)-3-(4-hydroxyphenyl)propyl)-3-phenylpropanamide]",< 300,–,< 300,< 300
"CN(C)[C@H](CNC(=O)C[C@H](c1ccccc1)C1CC1)Cc1ccc(O)cc1 [Compound 319, (S)-3-cyclopropyl-N-((S)-2-(dimethylamino)-3-(4-hydroxyphenyl)propyl)-3-phenylpropanamide]",< 300,> 3000,< 300,–
